melting point: 178 to 185 °C
SMILES: Cc1cc(C(F)(F)F)nn1CC(=O)N1CCN(c2nc(C3=NOC(c4c(F)cccc4F)C3)cs2)CC1C(=O)O (stereo not shown)
